Results taken from US5486624A (Pacific Corporation, priority 1994, dated 1996).

Key:
[1] = target: Tyrosinase; test: Tyrosinase-inhibiting activity; type: biochemical, mushroom; conditions: for IC50: mushroom tyrosinase, tyrosine, pH 6.8, 37° C., 10 minutes, 475 nm, read-out: IC50 (concentration of test compound which inhibits tyrosinase by 50%); for tyrosinase inhibition activity, fold higher than that of kojic acid: relative to kojic acid, in terms of IC50
Procedure: Tyrosinase, which was extracted from mushroom, was purchased from SIGMA. […] Ethanol and water were used to dilute the test compounds. As a control, 0.9 ml of a 1:1 mixture of ethanol and water was used. […] The test tube was quickly cooled in an ice water bath to stop the reaction, and absorbance was measured at 475 nm. […] IC50, i.e., the concentration of test compound which inhibits tyrosinase by 50% was calculated by serial dilution for each test compound.

[2] = DPPH (diphenylpicrylhydrazyl) radical-scavenging test; conditions: for IC50: DPPH 100 μM in ethanol, 37° C., 30 minutes, 515 nm, read-out: IC50 (concentration of test compound which scavenges the radical DPPH by 50%)
Procedure: Harmful radical-scavenging activities of the compounds of Examples 1 and 2 were compared with those of conventional anti-oxidants using a DPPH (diphenylpicrylhydrazyl) radical-scavenging test as follows:
DPPH was dissolved into ethanol to a concentration of 100 μM. A series of dilutions of compounds of Examples 1 and 2, vitamin C, vitamin E or hydroquinone were prepared. Ethanol and water were used to dilute the test compounds. As a control, a 1:1 mixture of ethanol and water was used. The series of dilutions of each test compound were mixed with 1,900 μl of DPPH solution and the dilution solvent was added to 2.0 ml. The resulting mixture was reacted in an incubator at 37° C. for 30 minutes. Absorbance was measured at 515 nm. The radical-scavenging activities of the compounds of Examples 1 and 2 and conventional anti-oxidants were calculated by the following equation: [formula]
IC50, i.e., the concentration of test compound which scavenge the radical, DPPH by 50% was calculated by the serial dilution method for each test compound.

[3] = system: human skin; test: human body patch test (skin safety); type: in vivo; conditions: for number of positive subjects/the number of total subjects: cream with 0.2 wt. % compound, 20 μl plaster, 30 volunteers; for safety to human skin (in words): overall conclusion
Procedure: In order to examine the safety of the compounds of Examples 1 and 2, a human body patch test was carried out as follows:
The brachium of thirty(30) healthy volunteers (15 females and 15 males) was thoroughly washed with 70% ethanol and applied with a plaster containing 20 μl of a conventional creamy preparation incorporating 0.2 wt. % of one of the compounds of Examples 1 and 2. The plaster was thoroughly bonded to the brachium using an adhesive tape. 48 hours later, the tape and chamber were removed, and the adherent site of the arm was wiped with a gauze to remove any remaining preparation. […] 48 hours later, the site was examined again.
The results are shown in terms of the number of positive subjects/the number of total subjects.

[4] = system: tyrosinase; conditions: prior art statement; cited from earlier work

Compound: O=C(C=Cc1ccc(O)c(O)c1)OCc1cc(=O)c(O)co1 [Example 1, 2-(3,4-dihydroxycinnamoyl)oxymethyl-5-hydroxy-4H-pyran-4-one]
- IC50 [1]: 4 µM
- tyrosinase inhibition activity, fold higher than that of kojic acid [1]: 20 fold
- radical-scavenging activity (in words) [2]: strong activity as a radical scavenger
- IC50 [2]: 12.3 µM
- number of positive subjects/the number of total subjects ([3]; 48 hours later): 1/30
- number of positive subjects/the number of total subjects ([3]; 96 hours later): 0/30
- skin response in patch test (in words) ([3]; after 48 hours): weak positive response
- skin response in patch test (in words) ([3]; after 96 hours): disappeared
- safety to human skin (in words) [3]: safe to human skin

Compound: COc1cc(C=CC(=O)OCc2cc(=O)c(O)co2)ccc1O [Example 2, 2-(4-hydroxy-3-methoxycinnamoyl) oxymethyl-5-hydroxy-4H-pyran-4-one]
- IC50 [1]: 4 µM
- tyrosinase inhibition activity, fold higher than that of kojic acid [1]: 20 fold
- IC50 [2]: 70 µM
- number of positive subjects/the number of total subjects ([3]; 48 hours later): 1/30
- number of positive subjects/the number of total subjects ([3]; 96 hours later): 0/30
- skin response in patch test (in words) ([3]; after 48 hours): weak positive response
- skin response in patch test (in words) ([3]; after 96 hours): disappeared
- safety to human skin (in words) [3]: safe to human skin

Compound: Oc1ccc(O)cc1 [Hydroquinone, hydroquinone, reference compound]
- IC50 [2]: 25.4 µM

Compound: O=c1cc(CO)occ1O [Kojic acid]
- inhibition of tyrosinase (in words) [4]: strongly inhibits the action of tyrosinase

Compound: O=C1O[C@H]([C@@H](O)CO)C(O)=C1O [Vitamin C, reference compound]
- IC50 [2]: 29.2 µM

Compound: tocopherol [Vitamin E, reference compound]
- IC50 [2]: 34.8 µM
